Measurements taken from patent US6699875B2, “Cascade esters of camptothecins and methods of treating cancer using these compounds” (priority 2002, dated 2004).

Legend:
human malignancies = assay: Clinical responses in Phase I clinical trial patients; type: in vivo; conditions: in humans, oral
Text: Clearly, there is a pressing need for a modification which will slow and delay the lactone ring opening upon its entrance into the blood circulation.

[1] = Plasma level of closed lactone form of 9NC after i.s. administration; type: in vivo, mice
[2] = Plasma level of closed lactone form of 9NC after oral administration to Phase I patients; type: in vivo, humans; conditions: after oral administration to Phase I clinical trial patients, on average
human tumor xenografts = conditions: in mice; cited from earlier work
[3] = sodium carboxylate salt vs closed lactone camptothecin; cited from earlier work
[4] = Metabolism and pharmacokinetics of camptothecin in human plasma; type: in vitro ADME
[5] = Closed lactone form of CPT in plasma after intrastomach administration in mice; type: in vivo
[6] = Closed lactone form of CPT in plasma after oral administration in humans; type: in vivo

Compound: CC[C@@]1(O)C(=O)OCc2c1cc1n(c2=O)Cc2cc3c([N+](=O)[O-])cccc3nc2-1 [9NC, 9-nitrocamptothecin]
- complete tumor regressions (human malignancies): 2/32
- share of drug present in the plasma in the closed lactone form [1]: 57%
- share of drug present in the plasma in the closed lactone form [2]: ~3%
- complete tumor regressions (human tumor xenografts): 32/32
- potency relative to CPT against human tumor xenografts (human tumor xenografts): 2-3 times

Compound: CC[C@@](O)(C(=O)[O-])c1cc2n(c(=O)c1CO)Cc1cc3ccccc3nc1-2.[Na+] [sodium carboxylate salt]
- potency relative to native camptothecin with the closed lactone ring intact [3]: 10%

Compound: 20(S)-camptothecin [CPT]
- half-life time of the drug with lactone intact [4]: 30 min
- metabolite detected [4]: the only metabolite detected is the ring-opened sodium carboxylate salt
- closed lactone form, share of the area under the curve [5]: approximately 54%
- closed lactone form, share of the area under the curve [6]: about 0.4%
